Earlier results, collected in US20100196504A1, “SYNERGISTIC ACTIVE PREPARATIONS COMPRISING 1,2-DECANEDIOL AND FURTHER ANTIMICROBIAL ACTIVE COMPOUNDS” (SYMRISE GmbH & Co. KG, priority 2007, published 2010).

Experiments:
[1] = tested on: Staphylococcus epidermidis; settings: microorganism causing body odour
[2] = tested on: Propionibacterium acnes; settings: microorganism causing acne
[3] = tested on: Corynebacterium acnes; settings: microorganism causing body odour

Measured: antimicrobial activity

CCCCCCCCC(O)CO (stereo not drawn) [1,2-decanediol]
antimicrobial activity: [1] | [2] | [3]
